Legend:
[1] = tested on: 40 HCC PDO lines; assay: 10 μM drug screening, cell viability at 96 h (CellTiter-Glo); type: cell-based, human
Experimental: FIG. 2A-2E. 10 μM drug screening and IC50 calculation across 40 PDOs from 20 HCC patients. (2A). 10 μM drug screening of omacetaxine and sorafenib, regorafenib, lenvatinib and cabozantinib on 40 PDOs derived from 20 HCC patients. X axis—the 40 PDO lines, Y axis—Cell viability. (2B). IC50 curve of 40 PDO lines, x-axis—omacetaxine dose, Y axis—Relative cell viability. (2C). […] (2D). IC50 distribution of 40 HCC PDOs. X axis—PDO lines, Y axis—IC50 number of omacetaxine for each PDO.
As readout of drug effectiveness, cell viability at 96 hours (h) was measured. White light microscopy images of one of the HCC PDO lines across 129 drugs was prepared. In FIG. 2E, each panel represents the image collected at 96 hours after treatment with each drug, at a concentration of 10 μM. […] To quantify survival, we implemented CellTiter-Glo, a luminescent cell viability assay. A total of 129 readings (one for each drug) was obtained for each of the 40 PDO lines, for a total of […] data points. […] Next, the inventors contrasted the survival of the […] HCC PDO lines when treated with omacetaxine versus current FDA approved drugs for HCC.

[2] = tested on: 6 HCC PDO lines; assay: FACS analysis of BrdU incorporation (proliferation); type: cell-based, human
[3] = tested on: PDX26-3
Experimental: FIG. 7A-7I. […] Significance was determined with log rank test. […] Error bars represent Mean±standard deviation. […] (7J).
Patient derived xenograft (PDX) models of human cancer are well documented to recapitulate primary tumor biology, as well as response to treatment^28, 29. Two PDX models from HCC patients were established in the inventors' lab with the purpose of creating a platform for further validation of drug leads. The first model, PDX26-3, was established by subcutaneous injection of HCC PDO cells into NOD SCID-IL2R-γ chain-deficient mice (NSG, Jackson Lab). More specifically, PDX26-3 is established from PDO26-3 cells at passage 3. After the initial PDX establishment, the model is perpetuated by implantation of pieces of tumors from current generation PDX mice into the next (as described in Materials and Methods).

[4] = tested on: 6 HCC PDO lines; assay: cleaved caspase 3 flow cytometry; type: cell-based, human
Experimental: FIG. 5A-5E. Apoptosis analysis of HCC PDOs treated with omacetaxine in vitro. Organoids were plate on 24 well plate, omacetaxine at 700 μM, 350 μM were added to cell culture medium for 96 h. Then cells were collected and subjected to the analysis below. (5A and 5C). Flow cytometry analysis of 4 HCC PDOs apoptosis using Annexin V/7AAD assay. […] (5B and 5D). Flow cytometry analysis of cleaved caspase 3 expression of omacetaxine treated HCC PDOs. […] The effects on proliferation were assessed to elucidate the omacetaxine mechanisms of action. […] To further understand the effects of omacetaxine on cancer cell proliferation and cell cycle, the inventors performed FACS analysis of Ki67 protein. Ki-67 is a nuclear protein expressed in proliferating cells (in all phases of the cell cycle except G0)^22,23. Furthermore, the higher expression of Ki67 has been linked to poorer disease free survival and overall survival in HCC^24. […] As caspase 3 is a key molecule in apoptosis, the inventors measured its activated (cleaved) fragment.

[5] = tested on: 26-3 PDX; assay: Ki67 immunofluorescent staining of PDX tumor frozen sections; type: in vivo, NSG mice; conditions: omacetaxine treated HCC PDX tumors vs matched controls
From the text: FIG. 8A-8G. Omacetaxine inhibits tumor cell proliferation and increases apoptosis and suppressed HCC oncoprotein expression in vivo. (8A-8D) Immunofluorescent staining of Ki67 and cleaved caspase 3 expression in 26-3 PDX model. 8A-8B show the IF staining pictures, 8C-8D show the relative Ki67 or cleaved caspase 3 positive cell number in omacetaxine treated mice compared with control treatment groups. (8E-8G) Omacetaxine suppressed HCC oncoprotein: c-Myc, Beta-catenin and MET protein expression in 50 HCC PDX treated with Omacetaxine vs control.
To verify the mechanism of omacetaxine target HCC mechanism in vivo, omacetaxine treated HCC PDX tumors, as well as matched controls, were harvested, and frozen section slides were made. […] The difference in apoptosis as well as proliferation was statistically significant (FIGS. 8C and 8D).

## COC(=O)C[C@](O)(CCCC(C)(C)O)C(=O)O[C@@H]1C(OC)=C[C@]23CCCN2CCc2cc4c(cc2[C@H]13)OCO4 [omacetaxine, omacetaxine mepusuccinate]
[1]
  survival of HCC PDO lines versus FDA approved HCC drugs (sorafenib, lenvatinib, regorafenib, cabozantinib): significantly more effective than first line HCC drugs (sorafenib and lenvatinib) and second line HCC drugs (regorafenib and cabozantinib
[1]; 96 h
  effectiveness in screen (growth inhibited by ≥50%): effective across all 40 HCC PDO lines
[1]; 96 h, across all 40 HCC PDO lines
  average HCC PDO survival: 4.2%
[2]
  BrdU incorporation in newly synthetized DNA (proliferation): inhibited incorporation
[3]; PDX26-3, day 30, vs control
  size of the tumors at the end of the treatment: statistically significant difference
  weight of the tumors at the end of the treatment: statistically significant difference
[3]; PDX26-3 mice, statistically significant
  increase in survival: approximately 100%
[3]; PDX26-3 mice, treatment applied directly into the tumor
  tumor growth: halting of tumor growth
[3]; mouse, in vivo
  body mass of mice, treatment vs. control group: no difference in the body mass
[4]
  cleaved caspase 3: induced
[5]
  proliferation as measured by Ki67 protein expression: less

Source: US20220226342A1, “COMPOSITIONS AND METHODS OF TREATING LIVER CANCERS” (The Johns Hopkins University, priority 2019, published 2022)
